Values quoted from earlier work, collected in patent US20150133416A1, “Pharmaceutical Composition Comprising Abiraterone Acetate” (Jagotec AG, priority 2012, published 2015).
Like-named read-outs stand apart in the source and are kept apart here.

Tests used:
[1] = 20 mg delayed release capsules administered with apple sauce
[2] = not given; remark: listed apart in the source

Structure (SMILES)	reduction in Cmax [1] [%]	AUC elevation compared with the fasted state (after a high fat meal) [fold]	Cmax elevation compared with the fasted state (after a high fat meal) [fold]	AUC elevation compared with the fasted state (after a low fat meal) [fold]	Cmax elevation compared with the fasted state (after a low fat meal) [fold]	aqueous solubility [2]	log P [2]
COc1ccc2[nH]c([S+]([O-])Cc3ncc(C)c(OC)c3C)nc2c1 (stereo not shown) [omeprazole]	25						
C[C@]12CC[C@H](O)CC1=CC[C@@H]1[C@@H]2CC[C@]2(C)C(c3cccnc3)=CC[C@@H]12 [abiraterone]		10	17	5	7	poor	very high
